In assay [1] the test system is human leukemia cell line T-ALL1 (with WT Notch1). The assay is described as follows: Cell cycle (PI staining, S-G2-M cells) and cell number, T-ALL1. The format is cell-based. The procedure: FIG. 2A is a series of charts showing representative cell cycle profiles of human leukemia cell line T-ALL1 (with WT Notch1) treated with a vehicle (V) (for palbociclib (PD) or compound GD), PD (0.5 μM), or compound GD at 1, 2.5, 5, 10, and 20 μM for 6 days.
FIG. 2B is a histogram summarizing the cell cycle distribution of the T-ALL1 cell line in FIG. 2A. Data shown are mean±S.D. (n=6); *P<0.05 vs its vehicle controls, t-test.
FIG. 2C is a chart showing the percentage of S-G2-M cells in samples in FIGS. 2A and 2B. […]
Table 2: Experimental Procedures: sensitivity to CDK6 kinase activity inhibition was tested by incubating different cell lines in the presence of CDK6 inhibitor GD007/PBS for either 24 hours for detecting the status of pRB-780 phosphorylation, or 5 days for determining the effect of GD007 on cell proliferation. (1) By immunoblotting (WB), we will detect phospho-pRB-S^780, one of the substrates of CDK6 kinase; (2) By using FACS analysis, we will stain treated cells with Propidium Iodide (PI), a commonly used fluorescent intercalator, to measure the subpopulation of cell cycle to reveal any impact of CDK6 inhibition on cell proliferation; (3) cell numbers will be counted using hemocytometer.

In assay [2] the test system is mouse WT SVFs. The assay is described as follows: Cell number, WT-SVFs. The format is cell-based. Particulars: 6 days; GD 0.1-10 μM. On the procedure:
FIG. 7A is a bar graph showing the cell numbers of WT-SVFs treated with LEE (10 μM) or compound GD at 0.1, 0.5, 1.0, 5.0, and 10 μM for 6 days. Data shown are mean±S.D. (n=6); *P<0.05 vs its vehicle control, t-test.
HCl salt of 6-acetyl-5-methyl-2-((4-(piperazin-1-ylmethyl)thiazol-2-yl)amino)pyrido[2,3-d]pyrimidin-7(8H)-one (Compound GD) prepared in Example 1 was examined for its inhibitory activity in cancer cell lines and WT and CDK6^−/− mouse embryonic fibroblasts (MEFs) and stromal vascular fractions (SVFs). MEFs and SVFs are enriched with mesenchymal stem cells (MSC) and pre-adipocytes which can differentiate into a variety of cell types, including adipocytes.

Assay [3] is described as follows: Fat pad mass and body weight of WT mice on normal chow diet. The format is in vivo. Particulars: WT (B6) mice, NCD. The procedure: FIGS. 9A and 9B are images showing a close view of the iWAT (FIG. 9A) and eWAT (FIG. 9B) and mass of fat pads from mice treated with GD or PBS, as indicated. The mass of various fat pads was normalized to body weight of mice on NCD at the end of experiments. Data shown are mean±S.D. (n=8 for each group), *p<0.05, t-test, GD vs PBS.
FIG. 9D is a graph showing body weight of age-matched female WT mice on NCD over 27-day observation period. GD/PBS commenced by gavage daily for 21 days at 200 mg/kg/day at age of 6-weeks-old. Body weight shown are mean±S.D. (n=8 for each group), *p<0.05, t-test, GD vs PBS.

Where [4] appears, read: 200 mg/kg/day for 21 days, normalized to body weight.

“Also recorded” adds a separate entry of the source.

By IC50 is commonly meant the midpoint of a concentration-inhibition curve. As for `CC(=O)c1c(C)c2cnc(Nc3nc(CN4CCNCC4)cs3)nc2[nH]c1=O` [Compound GD, 6-acetyl-5-methyl-2-((4-(piperazin-1-ylmethyl)thiazol-2-yl)amino)pyrido[2,3-d]pyrimidin-7(8H)-one], the IC50 in assay [1] (Homo sapiens, TALL-1, 144 h, T-ALL1, 6 days, read-out: IC50 (percentage of S-G2-M cells, growth inhibition)) is about 1100 nM. Besides, the “Compound GD Efficacy” value in assay [1] (Leukemic cells: TALL1, PI Staining, and cell number counting) was “Efficacious”. Also, the “proliferation of mouse WT SVFs” value in assay [2] is recorded as “inhibited proliferation”. In addition, the “body weight, most significant reduction compared to PBS treated mice” value in assay [3] (200 mg/kg/day) turned out to be 7.1 % reduction. Further, the “fat pad mass vs PBS-treated mice” value in assay [3] (200 mg/kg/day by gavage for 21 days, 200 mg/kg/day) was “dramatically and significantly decreased; also recorded: reduced fat mass”. In assay [3] (setting [4]), the “fat pad mass, eWAT, reduction vs PBS-treated mice” value was about 2.0 fold reduction and the “fat pad mass, iWAT, reduction vs PBS-treated mice” value is about 1.42 fold reduction.

Values taken from patent publication US12312346B2, “Pyridopyrimidine compounds and methods of their use” (Tufts Medical Center, Inc., priority 2018, dated 2025).
